US6090839A, “Antidiabetic agents” (Merck & Co., Inc., priority 1997, dated 2000)

Assays:
human PPARγ2 = biological target: T1, human PPARγ2 (Homo sapiens, UniProt P37231); experiment: PPAR Receptor Binding Assay: [3H]AD-5075 Displacement Assay for PPARγ2; details: [3H2]AD-5075, gst-PPARγ2, ~16 h at 4° C., pH 7.2
T1 construct: The full length human cDNA for PPARγ2 and PPARδ were subcloned; made in house; host or cells: E. coli
T1 sequence (P37231 1-505): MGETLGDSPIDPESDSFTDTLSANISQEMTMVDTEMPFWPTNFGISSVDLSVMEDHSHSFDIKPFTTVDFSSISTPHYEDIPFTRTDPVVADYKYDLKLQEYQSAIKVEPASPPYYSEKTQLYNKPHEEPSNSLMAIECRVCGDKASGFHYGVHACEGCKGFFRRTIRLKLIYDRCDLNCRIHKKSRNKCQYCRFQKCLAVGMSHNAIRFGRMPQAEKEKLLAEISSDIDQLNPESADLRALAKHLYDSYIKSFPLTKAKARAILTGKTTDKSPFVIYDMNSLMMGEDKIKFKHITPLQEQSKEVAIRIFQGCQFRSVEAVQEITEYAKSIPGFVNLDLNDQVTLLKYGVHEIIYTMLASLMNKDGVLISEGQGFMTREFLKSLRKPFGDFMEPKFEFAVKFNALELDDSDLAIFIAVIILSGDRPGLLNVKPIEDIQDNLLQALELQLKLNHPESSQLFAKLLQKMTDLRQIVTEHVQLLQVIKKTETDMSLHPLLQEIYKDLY
From the text: (§1) Compounds of the instant invention which are useful for the above discussed treatments can be identified and/or characterized by employing the PPARδ, and γ binding assays. The assays are useful in predicting or quantitating in vivo effects having to do with the control or modulation of glucose, free fatty acid, triglyceride, insulin or cholesterol. To evaluate IC50 or EC50, values the compounds were titrated in the appropriate assay using different concentrations of the compound to be tested. To obtain the appropriate values (%Inhibition-IC50, or %Activation-EC50), the data resulting from the assays were then analyzed by determining the best fit of a 4 parameter function to the data using the Levenberg-Marquardt non-linear fitting algorithm in Kaleidagraph (Synergy Software, Reading, Pa). The human nuclear receptor cDNA for PPARδ (hPPARδ) has been cloned from a human osteosarcoma cell cDNA library and is fully described in A. Schmidt et al., Molecular Endocrinology, 6:1634-1641 (1992), herein incorporated by reference in its entirety. See A. Elbrecht et al., Biochem. and Biophy. Res. Comm. 224:431-437 (1996) and T. Sher et al., Biochem. 32:5598-5604 (1993) for a description of the human nuclear receptor gene PPARγ, and α.
Human PPARγ2 and PPARδ, independently, were prepared as gst-fusion proteins in E. coli. […]

human PPARδ = biological target: T2, human PPARδ (Homo sapiens, UniProt Q03181); experiment: PPAR Receptor Binding Assay: [3H2]Example 11 Displacement Assay for PPARδ; details: [3H2]Example 11, gst-PPARδ, ~16 h at 4° C., pH 7.2
T2 construct: The full length human cDNA for PPARγ2 and PPARδ were subcloned; made in house; host or cells: E. coli
T2 sequence (Q03181 1-441): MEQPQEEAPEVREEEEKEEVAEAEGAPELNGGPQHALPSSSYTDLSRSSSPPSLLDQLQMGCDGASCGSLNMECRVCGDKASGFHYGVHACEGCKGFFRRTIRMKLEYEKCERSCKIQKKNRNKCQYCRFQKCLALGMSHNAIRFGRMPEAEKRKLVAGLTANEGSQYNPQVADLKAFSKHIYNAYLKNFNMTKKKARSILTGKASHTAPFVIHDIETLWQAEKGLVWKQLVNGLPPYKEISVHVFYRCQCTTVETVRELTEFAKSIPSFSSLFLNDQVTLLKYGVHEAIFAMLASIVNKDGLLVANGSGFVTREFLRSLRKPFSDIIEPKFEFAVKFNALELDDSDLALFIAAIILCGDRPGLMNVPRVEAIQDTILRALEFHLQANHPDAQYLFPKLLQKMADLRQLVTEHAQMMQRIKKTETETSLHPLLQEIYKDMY
From the text: as §1
The hPPARδ binding assay comprises the steps of: […]

SMILES | Kd (human PPARγ2) [nM] | Kd (human PPARδ) [nM]
Cc1oc(-c2ccccc2)nc1C(O)COc1ccc(CC2SC(=O)NC2=O)cc1 (centres unmarked) [AD-5075] | ~1 | 
CCCc1c(OCCc2cc3c4c(ccc3o2)C(C(=O)O)CCC4)ccc2c(-c3ccccc3)noc12 (centres unmarked) [Example 11, 2-(2-(3-phenyl-7-propylbenz[4,5]isoxazol-6-yloxy)ethyl)-4,5,6,7-tetrahydronaphtho[2,1-b]furan-7-carboxylic acid] |  | ~1
